Results reported in patent publication US20060293227A1, “Cosmetic compositions and methods using transforming growth factor-beta mimics” (priority 2005, published 2006).
Where no end group is shown, it is not given here. [ ]: non-standard residue; d: D form. NMeA = CN[C@@H](C)C(=O)O; Abu = CC[C@H](N)C(=O)O; Aib = CC(C)(N)C(=O)O

What was measured:
[1] = tested on: Mv-1-Lu mink lung epithelial cells; assay: Inhibition of DNA synthesis ([3H]thymidine incorporation) of Mv-1-Lu mink lung epithelial cells; format: cell-based; details: for Inhib by new peptide/Inhib by cytomodulin: 3H-thymidine incorporation, MV-1-Lu cells, cytomodulin at same concentration; for Inhibition of DNA synthesis / proliferation of Mv-1-Lu cells (in words): thymidine incorporation, cytomodulin at 10^-9 to 10^-6 M; for 3H-Radioactivity / % Inhibition of incorporation of 3H-thymidine: MV-1 Lu cells
Protocol: The effect of TGF-β and cytomodulin were evaluated by determining the rate of […] incorporation into total acid-insoluble DNA and cell number. See generally, Sampath et al., J. Biol. Chem., 267, pp. 20352-20362 (1992). DNA synthesis rates were determined in triplicate cultures after 24 hour treatment with various concentrations (10^−9 M to 10^−6 M) of either TGF-β or cytomodulin (which was synthesized by the Merrifield method) by adding [methyl-^3H]thymidine (2uCi/ml, 80 Ci/mmol) for 6 hours before the termination of the culture. Incorporation was terminated by aspiration of the medium, and after washing three times with phosphate-buffered saline, the trichloroacetic acid (10%)-precipitated radioactive DNA was extracted with 1.0% (w/v) sodium dodecyl sulfate, 0.1 M NaOH and quantitated by liquid scintillation counting. For cell number determination, 1×10^5 cells were plated in flasks in MEM containing 10% FBS, and after 24 hours, the growth medium was replaced with serum-free medium containing various conceptions of TGF-β and cytomodulin. Triplicate cultures were harvested every 24 hours for the duration of 7 days, and the cell number was determined by counting cells released by trypsin digestion in a fixed volume hemacytometer.
The numbers shown at the various concentration are the ratio of the inhibition rate of the peptide being tested over the inhibition rate of cytomodulin (SEQ ID NO: 1) at the same concentration.
Tests for bioactivity were conducted as described above for DNA inhibition. In summary, the cytomodulin analogs listed in Table 3 were all found active as agonists and thus, as defined herein, are considered TGF-β mimics.

NRK-49 F fibroblasts [2] = assay: Growth and colony formation by NRK-49 F fibroblasts in soft agar; format: cell-based; details: 100 nM in Example 2, with EGF and PDGF
Protocol: The original assay for TGF-β, the ability to promote anchorage independent growth of normal fibroblasts is still one of the hallmarks of TGF-β activity. NRK-49 F fibroblasts were grown at 37° C. in DEM supplemented with 10% fetal calf serum. […] To this, either 100 nM TGF-β (positive control) or 100 nM cytomodulin was added. NRK49 F fibroblasts (5×10^4 cells/mi) were mixed with 0.3% agar were plated on the bottom of 35 mm culture dishes. Colony formation was observed starting on day 3 of culture.

NRK-49 F fibroblasts [3] = details: literature statement (Massagu, J. Biol. Chem. 1984); cited from earlier work
human dermal fibroblasts = assay: Expression of type I collagen, TGF-β and collagenase in human dermal fibroblasts; format: cell-based; details: for Expression of TGF-β / Expression of collagenase: human dermal fibroblasts; for Expression of type I collagen: human dermal fibroblasts (primary cultures of neo-natal cells for cytomodulin)
[4] = tested on: human osteogenic sarcoma (HOS) cell line; assay: Expression of type I collagen, TGF-β, alkaline phosphatase and osteonectin in HOS cells; format: cell-based
TGF-β activity = assay: TGF-β like activity, overall statement from the assays used; format: cell-based; details: by the assays used
skin [5] = tested on: skin; design: species or system human; details: in vivo
Excerpt: A person, of light complexion, applied a lotion comprising cytomodulin (SEQ ID NO: 1) at a concentration of about 0.001%, in EUCERIN™, to one side of their face a at a frequency of 1-2 times per week, typically at night before sleep, leaving uncovered while leaving the other side of their face without application of the TGF-β lotion. […] For example, crows feet became more shallow and the skin and face looked fuller and smoother. Color and skin tone became more youthful in appearance. […] After 18 days of treatment, the difference in appearance between the treated and untreated sides of the face was noticeable enough that the subject began to apply the topical composition to the entire face.
The same subject applied the CM-1 lotion to the back of one hand daily, while leaving the back of the other hand untreated. The treatment continued for several weeks.

eyelids = tested on: eyelids; design: species or system human; details: in vivo
Excerpt: A person, applied a lotion comprising cytomodulin (SEQ ID NO: 1) at a concentration of about 0.001%, to their eyelids twice per week for 2 months.

skin [6] = tested on: skin; design: species or system human; details: in vivo; remark: listed apart in the source
Excerpt: A person, with very dry, wind-burnt skin, many fine lines, and the beginning of wrinkles, applied a lotion comprising cytomodulin (SEQ ID NO: 1) at a concentration of about 0.001% on left side of their face only, three days per week. […] Within 3 weeks there was a a noticeable difference between the two sides of the face, with the right side having more fine lines appearing much drier and weather-worn than the left (treated) side. […] The subject stopped application after 3 months because of the difference in the appearance of the two side of the face A person applied a lotion comprising cytomodulin (SEQ ID NO: 1) at a concentration of about 0.001% on right side of their neck only, daily. […] The right side of the neck is noticeably different than the left side of the neck. […] A person with noticebly wrinkled and thickened skin on the neck applied a lotion comprising cytomodulin (SEQ ID NO: 1) at a concentration of about 0.001% to their neck once every four days. The subject also used Lancome makeup with sunscreen and Oil of Olay moisturizer for sensitive skin.

## A-N-V-A-E-K (ANVAEK) [SEQ ID NO: 15]
[1]; concentration 10 nM
  Inhib by new peptide/Inhib by cytomodulin: 0.80
[1]; concentration 100 nM
  Inhib by new peptide/Inhib by cytomodulin: 1.00

## TGF-β
NRK-49 F fibroblasts [2]
  Growth and colony formation in soft agar: grew colonies
NRK-49 F fibroblasts [3]
  Colony formation in the absence of EGF and PDGF: does not induce colony formation

## L-I-A-E-A-K (LIAEAK) [L2]
[1]
  Inhibition of DNA synthesis / proliferation of Mv-1-Lu cells (in words): inhibited the proliferation
NRK-49 F fibroblasts [2]
  Growth and colony formation in soft agar: promoted the growth
Human dermal fibroblasts
  Expression of TGF-β: increased the expression
  Expression of collagenase: decreased the expression
  Expression of type I collagen: increased the expression
[4]
  Expression of TGF-β: increased the expression
  Expression of alkaline phosphatase: increased the expression
  Expression of type I collagen: increased the expression
TGF-β activity
  TGF-β like activity (overall): at least as much TGF-β like activity as cytomodulin

## L-(Abu)-A-E-A-K (L[Abu]AEAK) [SEQ ID NO: 6]
[1]; peptide 1 nM
  3H-Radioactivity: 2.02 10^3 dpm
  % Inhibition of incorporation of 3H-thymidine: 33%
[1]; peptide 5 nM
  3H-Radioactivity: 1.97 10^3 dpm
  % Inhibition of incorporation of 3H-thymidine: 35%

## L-I-A-K-G-K (LIAKGK) [SEQ ID NO: 16]
[1]; concentration 10 nM
  Inhib by new peptide/Inhib by cytomodulin: 0.65
[1]; concentration 100 nM
  Inhib by new peptide/Inhib by cytomodulin: 0.67

## L-I-A-D-A-K (LIADAK) [SEQ ID NO: 9]
[1]; concentration 1 nM
  Inhib by new peptide/Inhib by cytomodulin: 0.45
[1]; concentration 10 nM
  Inhib by new peptide/Inhib by cytomodulin: 0.87
[1]; concentration 100 nM
  Inhib by new peptide/Inhib by cytomodulin: 1.14
[1]; concentration 1000 nM
  Inhib by new peptide/Inhib by cytomodulin: 1.25

## L-I-A-Q-A-K (LIAQAK) [SEQ ID NO: 12]
[1]; concentration 1 nM
  Inhib by new peptide/Inhib by cytomodulin: 0.90
[1]; concentration 10 nM
  Inhib by new peptide/Inhib by cytomodulin: 1.10
[1]; concentration 100 nM
  Inhib by new peptide/Inhib by cytomodulin: 0.80
[1]; concentration 1000 nM
  Inhib by new peptide/Inhib by cytomodulin: 1.56

## ANVAENA [cytomodulin, Ala-Asn-Val-Ala-Glu-Asn-Ala]
Skin [5]
  Negative effects of application: No negative effects
eyelids
  Adverse effects: No adverse effects
Skin [6]
  Accidental contact of the lotion with the eyes: no apparent problem or irritation
  Adverse effects: No adverse effects
  Adverse effects (subject's report): no adverse effects

## L-I-A-P-E-A (LIAPEA) [L1]
[1]
  Inhibition of DNA synthesis / proliferation of Mv-1-Lu cells (in words): inhibited the proliferation
NRK-49 F fibroblasts [2]
  Growth and colony formation in soft agar: promoted the growth
Human dermal fibroblasts
  Expression of TGF-β: increased the expression
  Expression of collagenase: decreased the expression
  Expression of type I collagen: increased the expression
[4]
  Expression of TGF-β: increased the expression
  Expression of alkaline phosphatase: increased the expression
  Expression of type I collagen: increased the expression
TGF-β activity
  TGF-β like activity (overall): at least as much TGF-β like activity as cytomodulin

## L-I-A-G-E-G (LIAGEG) [SEQ ID NO: 14]
[1]; concentration 1 nM
  Inhib by new peptide/Inhib by cytomodulin: 0.66
[1]; concentration 10 nM
  Inhib by new peptide/Inhib by cytomodulin: 0.85
[1]; concentration 100 nM
  Inhib by new peptide/Inhib by cytomodulin: 1.41
[1]; concentration 1000 nM
  Inhib by new peptide/Inhib by cytomodulin: 1.88

## L-(Aib)-A-E-A-K (L[Aib]AEAK) [SEQ ID NO: 4]
[1]; peptide 5 nM
  3H-Radioactivity: 2.31 10^3 dpm
  % Inhibition of incorporation of 3H-thymidine: 35%
[1]; peptide 50 nM
  3H-Radioactivity: 1.94 10^3 dpm
  % Inhibition of incorporation of 3H-thymidine: 46%
[1]; peptide 100 nM
  3H-Radioactivity: 1.44 10^3 dpm
  % Inhibition of incorporation of 3H-thymidine: 60%
[1]; peptide 500 nM
  3H-Radioactivity: 1.61 10^3 dpm
  % Inhibition of incorporation of 3H-thymidine: 55%
[1]; peptide 1 mM (so in the source)
  % Inhibition of incorporation of 3H-thymidine: 27%
[1]; peptide 1 mM (so in the source), control without peptide 3.57
  3H-Radioactivity: 2.60 10^3 dpm

## L-I-(Nme-A)-E-A-K (LI[NMeA]EAK) [SEQ ID NO: 5]
[1]; peptide 1 nM
  3H-Radioactivity: 1.61 10^3 dpm
  % Inhibition of incorporation of 3H-thymidine: 47%
[1]; peptide 5 nM
  3H-Radioactivity: 1.76 10^3 dpm
  % Inhibition of incorporation of 3H-thymidine: 42%
[1]; peptide 50 nM
  3H-Radioactivity: 1.60 10^3 dpm
  % Inhibition of incorporation of 3H-thymidine: 41%
[1]; peptide 100 nM
  3H-Radioactivity: 1.81 10^3 dpm
  % Inhibition of incorporation of 3H-thymidine: 40%
[1]; peptide 500 nM
  3H-Radioactivity: 1.42 10^3 dpm
  % Inhibition of incorporation of 3H-thymidine: 53%

## L-I-A-E-A-A (LIAEAA) [SEQ ID NO: 11]
[1]; concentration 1 nM
  Inhib by new peptide/Inhib by cytomodulin: 1.16
[1]; concentration 10 nM
  Inhib by new peptide/Inhib by cytomodulin: 1.00
[1]; concentration 100 nM
  Inhib by new peptide/Inhib by cytomodulin: 1.17
[1]; concentration 1000 nM
  Inhib by new peptide/Inhib by cytomodulin: 1.85

## L-I-A-G-G-E (LIAGGE) [SEQ ID NO: 13]
[1]; concentration 1 nM
  Inhib by new peptide/Inhib by cytomodulin: 1.10
[1]; concentration 10 nM
  Inhib by new peptide/Inhib by cytomodulin: 1.33
[1]; concentration 100 nM
  Inhib by new peptide/Inhib by cytomodulin: 1.45
[1]; concentration 1000 nM
  Inhib by new peptide/Inhib by cytomodulin: 1.90

## L-I-A-N-A-K (LIANAK) [SEQ ID NO: 10]
[1]; concentration 1 nM
  Inhib by new peptide/Inhib by cytomodulin: 1.70
[1]; concentration 10 nM
  Inhib by new peptide/Inhib by cytomodulin: 2.00
[1]; concentration 100 nM
  Inhib by new peptide/Inhib by cytomodulin: 1.43
[1]; concentration 1000 nM
  Inhib by new peptide/Inhib by cytomodulin: 3.05
